Measurements as given in patent US20260224566A1, “Obicetrapib and Ezetimibe Combination Treatment and Fixed Dose Pharmaceutical Compositions” (NewAmsterdam Pharma B.V., priority 2023, published 2026).
Where a name gives a salt, the structure may show the parent alone.

Assays:
Format in all cases: physicochemical
[1] = Stability study at 70° C./75% RH, open vial (physical stability by XRPD, chemical purity by HPLC); settings: 75% relative humidity
Description: FIG. 54 is a plot of x-ray powder diffraction pattern taken of crystalline obicetrapib hemicalcium, and FIG. 55 is a plot of x-ray powder diffraction patterns taken of crystalline obicetrapib hemicalcium under stress conditions. In FIG. 55, there are four diffraction patterns shown based on stability study set forth in Example 11.27. Pattern 1 is an x-ray powder diffraction pattern of a sample of amorphous obicetrapib hemicalcium. Pattern 2 is the x-ray powder diffraction pattern of a sample of crystalline obicetrapib hemicalcium. In pattern 3, the sample of crystalline obicetrapib hemicalcium was exposed to 70° C. at 75% relative humidity for one day. […] Pattern 1 was taken before the sample was placed on stability.
Stability study was conducted on crystalline and amorphous forms of obicetrapib at 70° C./75% relative humidity (RH). The solids were placed into a 4.0 ml glass vial without caps (open condition) and stored at 70° C./75% RH. […] The solids were analyzed by XRPD for physical stability and by HPLC for chemical purity. The sample collected at each time point was dissolved in methanol before HPLC analysis. In order to minimize the effect of potential analyte adsorption on the filter, the initial 0.5 mL of supernatant passing through the filter was discarded prior to collecting sample for HPLC analysis. Purity for each sample was determined based on peak area percent and compared to the sample at T=0.

[2] = Kinetic solubility in FeSSIF (pH 5.0) at 37° C.; settings: as obicetrapib free acid
Description: (§1) The amorphous form has a higher kinetic solubility and dissolution rate than the crystalline form (and by extension obicetrapib itself). Both crystalline and amorphous obicetrapib hemicalcium kinetic solubility determinations were made in biorelevant media at different pHs, namely at about 5.0 (FeSSIF conditions) and at pH of about 6.5 (FaSSIF) conditions as set forth in Example 11.28.
The concentrations in Table W are those of obicetrapib (i.e., the free acid).
(§2) The solids were magnetically stirred at 600 RPM in a shaker bath and samples were drawn with a 1.0 ml syringe at T=15 mins, 30 mins, 60 mins, 90 mins and 120 mins. The solubility was measured using HPLC method provided by the client. The compound was added to 4.0 ml glass vials at approximately 20.0 mg/ml. Samples were agitated with a vortex mixer for about 5 minutes to ensure the presence of undissolved excess powder. The sample collected at each time point was centrifuged at 1200 RPM, filtered with 0.45 μm Polytetrafluoroethylene (PTFE) filters and diluted with methanol before HPLC analysis. In order to minimize the effect of potential analyte adsorption on the filter, the initial 0.5 mL of supernatant passing through the filter was discarded prior to collecting sample for HPLC analysis.

[3] = Kinetic solubility in FaSSIF (pH 6.5) at 37° C.; settings: as obicetrapib free acid
Description: as §1
The concentrations in Table X are those of obicetrapib (i.e., the free acid).
as §2

[4] = 15 mins, listed as Amorphous obicetrapib hemicalcium Batch #1
[5] = 15 mins, listed as Amorphous obicetrapib hemicalcium Batch #2
[6] = 30 mins, listed as Amorphous obicetrapib hemicalcium Batch #1
[7] = 30 mins, listed as Amorphous obicetrapib hemicalcium Batch #2
[8] = 60 mins, listed as Amorphous obicetrapib hemicalcium Batch #1
[9] = 60 mins, listed as Amorphous obicetrapib hemicalcium Batch #2
[10] = 90 mins, listed as Amorphous obicetrapib hemicalcium Batch #1
[11] = 90 mins, listed as Amorphous obicetrapib hemicalcium Batch #2
[12] = 120 mins, listed as Amorphous obicetrapib hemicalcium Batch #1
[13] = 120 mins, listed as Amorphous obicetrapib hemicalcium Batch #2

CCOC(=O)N1c2ccc(C(F)(F)F)cc2[C@@H](N(Cc2cc(C(F)(F)F)cc(C(F)(F)F)c2)c2ncc(OCCCC(=O)[O-])cn2)C[C@H]1CC.CCOC(=O)N1c2ccc(C(F)(F)F)cc2[C@@H](N(Cc2cc(C(F)(F)F)cc(C(F)(F)F)c2)c2ncc(OCCCC(=O)[O-])cn2)C[C@H]1CC.[Ca+2] [crystalline obicetrapib hemicalcium, reference compound]
physical stability by XRPD ([1]; 7 days): the result remains the same | physical stability by XRPD ([1]; one day): near total loss of crystallinity

CCOC(=O)N1c2ccc(C(F)(F)F)cc2[C@@H](N(Cc2cc(C(F)(F)F)cc(C(F)(F)F)c2)c2ncc(OCCCC(=O)O)cn2)C[C@H]1CC [amorphous obicetrapib hemicalcium, amorphous hemicalcium salt of (2R,4S)-4-{[3,5-bis(trifluoromethyl)benzyl]-[5-(3-carboxypropoxy)pyrimidin-2-yl]amino}-2-ethyl-6-trifluoromethyl-3,4-dihydro-2H-quinoline-1-carboxylic acid ethyl ester]
Concentration in Solution [2, 4]: 520 µg/mL | Concentration in Solution [2, 5]: 502 µg/mL | Concentration in Solution [2, 6]: 661 µg/mL | Concentration in Solution [2, 7]: 618 µg/mL | Concentration in Solution [2, 8]: 675 µg/mL | Concentration in Solution [2, 9]: 628 µg/mL | Concentration in Solution [2, 10]: 696 µg/mL | Concentration in Solution [2, 11]: 658 µg/mL | Concentration in Solution [2, 12]: 675 µg/mL | Concentration in Solution [2, 13]: 642 µg/mL | physical stability by XRPD ([1]; 7 days): remained amorphous | physical stability by XRPD ([1]; 14 days): remained amorphous | Concentration in Solution [3, 4]: 60 µg/mL | Concentration in Solution [3, 5]: 90 µg/mL | Concentration in Solution [3, 6]: 99 µg/mL | Concentration in Solution [3, 7]: 140 µg/mL | Concentration in Solution [3, 8]: 163 µg/mL | Concentration in Solution [3, 9]: 229 µg/mL | Concentration in Solution [3, 10]: 201 µg/mL | Concentration in Solution [3, 11]: 293 µg/mL | Concentration in Solution [3, 12]: 244 µg/mL | Concentration in Solution [3, 13]: 387 µg/mL
